# Test results reported in patent US6613961B1, “Plants capable of metabolizing drugs and use thereof” (priority 1998, dated 2003).
# Key:
# [1] = system: seeds of Nipponbare into which the gene was not introduced; experiment: Germination assay for herbicide resistance, non-introduced rice seeds; type: in vivo, rice (Nipponbare); settings: after about 4 to 7 days
# tobacco transformants = experiment: Assay for herbicide resistance in the tobacco R0 plants (human CYP2C9); type: in vivo; parameters: Tolerance to chlorosulfuron: key: 1: almost dead; 2: severely inhibited growth; 3: slightly inferior growth; 4: the same growth as that when the herbicide was not dispersed; settings: for Tolerance to chlorosulfuron: cultured for 40 days
# Protocol: (§1) Transformed and non-transformed tobacco plants proliferated from axillary buds were transferred onto hormone-free Murashige & Skoog (MS) medium containing 0, 20, 50, 100, or 200 nM chlorosulfuron for assaying tolerance at growth.
# (§2) 4, the same growth as that when the herbicide was not dispersed.
# [2] = system: non-transformed tobacco plants; only vector introduced; experiment: Assay for herbicide resistance in tobacco, control plants; type: in vivo; settings: for Tolerance to chlorosulfuron: cultured for 40 days
# Protocol: as §1, §2
# tobacco R0 plants = experiment: Herbicide metabolism in the tobacco R0 plants; type: in vivo; settings: 14C-labeled 0.5 mM chlorosulfuron (20 μl) on the leaf surface; 50 hours; thin layer chromatography
# Protocol: Using the tobacco R0 plants 3 weeks after transplantation, metabolism of chlorosulfuron was measured by the method of Sweetser et al. (Sweetser, P. B. et al., Pestic. Biochem. Physiol., 1982, 17, 18-23). ^14C-labeled 0.5 mM chlorosulfuron (20 μl) was spread on the leaf surface. The leaf surface was washed with acetone 50 hours after the treatment, and a metabolite was extracted by acetone extraction. The extract was concentrated and dried by a rotary evaporator, dissolved in methanol, and analyzed by thin layer chromatography using benzene:acetone:formic acid (30:10:1) as an solvent.
# [3] = system: human P4502C9 gene-introduced rice; experiment: Germination assay for herbicide resistance of human P4502C9 gene-introduced rice R1 seeds; type: in vivo
# Human CYP2C9 = Human CYP2C9 (Homo sapiens, UniProt P11712); experiment: Herbicide metabolism by human P450 molecular species (microsomal fraction); type: in vitro ADME
# Human CYP2C9, sequence (P11712 whole entry): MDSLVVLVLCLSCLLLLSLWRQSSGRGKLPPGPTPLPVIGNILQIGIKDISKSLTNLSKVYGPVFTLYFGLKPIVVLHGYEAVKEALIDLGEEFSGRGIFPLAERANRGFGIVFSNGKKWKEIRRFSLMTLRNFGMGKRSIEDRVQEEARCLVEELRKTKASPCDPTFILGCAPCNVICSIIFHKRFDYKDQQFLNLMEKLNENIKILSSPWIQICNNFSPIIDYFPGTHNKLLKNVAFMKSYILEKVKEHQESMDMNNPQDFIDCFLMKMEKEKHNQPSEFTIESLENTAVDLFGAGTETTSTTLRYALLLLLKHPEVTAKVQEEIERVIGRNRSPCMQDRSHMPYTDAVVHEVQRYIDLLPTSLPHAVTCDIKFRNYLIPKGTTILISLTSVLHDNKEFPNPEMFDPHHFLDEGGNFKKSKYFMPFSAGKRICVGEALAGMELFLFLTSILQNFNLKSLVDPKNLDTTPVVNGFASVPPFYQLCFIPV
# non-transformed MayQueen = experiment: Assay for herbicide resistance, non-transformed potato; type: in vivo; settings: 14 days after dispersal
# From the text: 4, the same growth as that when herbicide was not dispersed.
# [4] = system: human P4502C18 gene-introduced rice; experiment: Germination assay for herbicide resistance of human P4502C18 gene-introduced rice R1 seeds; type: in vivo
# [5] = system: human P4502C19 gene-introduced rice; experiment: Germination assay for herbicide resistance of human P4502C19 gene-introduced rice R1 seeds; type: in vivo
# Human CYP2B6 = target: T1, Human CYP2B6 (Homo sapiens, UniProt P20813); experiment: Metabolism of herbicides in microsomes of recombinant yeast expressing human P450
# T1 sequence (P20813 1-491): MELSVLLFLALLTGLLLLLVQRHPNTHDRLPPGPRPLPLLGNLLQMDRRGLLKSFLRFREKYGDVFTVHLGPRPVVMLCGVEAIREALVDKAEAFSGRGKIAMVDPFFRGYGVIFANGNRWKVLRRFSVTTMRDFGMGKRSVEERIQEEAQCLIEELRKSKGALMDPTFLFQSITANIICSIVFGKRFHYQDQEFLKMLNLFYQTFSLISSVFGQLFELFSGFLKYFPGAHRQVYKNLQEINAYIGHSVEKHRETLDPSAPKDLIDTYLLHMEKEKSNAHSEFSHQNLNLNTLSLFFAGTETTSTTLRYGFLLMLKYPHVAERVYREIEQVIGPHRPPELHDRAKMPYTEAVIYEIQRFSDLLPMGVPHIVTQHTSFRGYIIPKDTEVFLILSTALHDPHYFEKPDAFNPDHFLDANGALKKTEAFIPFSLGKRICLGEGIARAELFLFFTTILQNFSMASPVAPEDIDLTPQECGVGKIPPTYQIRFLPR
# Protocol: The reaction was carried out in a range of temperature suitable for an organism from which a p450 molecular species is derived (for example, 37° C. for human P450), by mixing with air while vigorously shaking, within a period during which an enzyme is not inactivated (for example, for 10 to 60 min).
# From the height of the peak, a metabolized amount can be obtained.
# To 0.1 M potassium phosphate buffer (pH 7.4), the microsomal fraction prepared from each of yeast strains respectively expressing one of 11 human P450 molecular species (obtained from Sumitomo Chemical) was added so that the amount of the p450 would be 25 pmol. Furthermore, 0.5 mM NADPH, 5 mM glucose 6 phosphate, 1 U/ml glucose 6 phosphate dehydrogenase, and 0.1 mM each of the following herbicides (those available in the market were used) were added at the final concentrations thereto to make the total volume of 100 μl. The reaction mixture was shaken at 37° C. for 60 min, and an organic solvent was added thereto for the extraction. The extract was applied to the high performance liquid chromatography, and the metabolite was measured.
# S1974 (human CYP2C19) = experiment: Herbicide tolerance assay for transformants; type: in vivo, Solanum tuberosum cv. MayQueen; settings: acetochlor 20 μmol, atrazine 1.2 μmol, metolachlor 30 μmol dispersed
# From the text: Then, herbicides were dispersed.
# S1972 (human CYP2B6) = settings: acetochlor 20 μmol, metolachlor 30 μmol dispersed
# potato transformants [6] = experiment: Assay for herbicide resistance of potato transformants (human CYP2C19); settings: for Resistance to herbicide: Transformant, 14 days after dispersal
# potato transformants [7] = experiment: Herbicide metabolism in the potato transformants; type: in vivo, potato (MayQueen); settings: 14C-labeled pyributicarb 10 μM in the medium; cultured for 8 days; thin layer chromatography
# Protocol: The potato transformants proliferated from axillary buds, elongated to about 10 cm, were cultured in the medium added with the ^14C-labeled pyributicarb at the concentration of 10 μM. The plants were cultured for 8 days, and metabolites were extracted from the plants (Murakami, M. et al., J. Pesticide. Sci., 1997, 22, 222-225). The metabolites and the culture solution were analyzed by thin layer chromatography (Shiota, N. et al., Pestic. Biochem. Physiol., 1996, 54, 190-198).
# Human CYP2C19 = target: T2, Human CYP2C19 (Homo sapiens, UniProt P33261); experiment: Metabolism of herbicides in microsomes of recombinant yeast expressing human P450; type: in vitro ADME
# T2 construct: purchased Sumitomo Chemical; host or cells: recombinant yeast, microsomal fraction
# T2 sequence (P33261 whole entry): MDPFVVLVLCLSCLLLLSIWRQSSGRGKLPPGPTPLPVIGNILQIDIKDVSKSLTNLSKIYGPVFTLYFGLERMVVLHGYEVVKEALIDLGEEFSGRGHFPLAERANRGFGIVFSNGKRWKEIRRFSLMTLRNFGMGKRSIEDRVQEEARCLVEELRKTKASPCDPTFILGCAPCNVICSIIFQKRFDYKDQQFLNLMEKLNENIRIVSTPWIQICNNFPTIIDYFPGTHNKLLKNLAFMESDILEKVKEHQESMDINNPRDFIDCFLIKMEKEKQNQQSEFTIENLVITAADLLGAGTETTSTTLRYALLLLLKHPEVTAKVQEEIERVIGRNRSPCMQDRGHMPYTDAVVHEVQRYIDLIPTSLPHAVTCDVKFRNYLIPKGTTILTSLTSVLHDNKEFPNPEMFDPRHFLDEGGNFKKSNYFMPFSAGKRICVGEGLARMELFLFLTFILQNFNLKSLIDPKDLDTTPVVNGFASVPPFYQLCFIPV
structure (smiles),measurement,setting,value
COc1nc(C)nc(NC(=O)NS(=O)(=O)c2ccccc2Cl)n1 [chlorosulfuron],Germination of seeds,[1]; chlorosulfuron 250 nM,inhibited
same,growth of the transformants,tobacco transformants; 200 nM chlorosulfuron,grew
same,Tolerance to chlorosulfuron,"tobacco transformants; transformant N8, 20 nM",4
same,Tolerance to chlorosulfuron,"tobacco transformants; transformant N8, 50 nM",4
same,Tolerance to chlorosulfuron,"tobacco transformants; transformant N8, 100 nM",2.5
same,Tolerance to chlorosulfuron,"tobacco transformants; transformant N8, 200 nM",2
same,Tolerance to chlorosulfuron,"tobacco transformants; transformant N60, 20 nM",4
same,Tolerance to chlorosulfuron,"tobacco transformants; transformant N60, 50 nM",4
same,Tolerance to chlorosulfuron,"tobacco transformants; transformant N60, 100 nM",3
same,Tolerance to chlorosulfuron,"tobacco transformants; transformant N60, 200 nM",3
same,Tolerance to chlorosulfuron,"tobacco transformants; transformant N61, 20 nM",4
same,Tolerance to chlorosulfuron,"tobacco transformants; transformant N61, 50 nM",4
same,Tolerance to chlorosulfuron,"tobacco transformants; transformant N61, 100 nM",2
same,Tolerance to chlorosulfuron,"tobacco transformants; transformant N61, 200 nM",2
same,Tolerance to chlorosulfuron,"tobacco transformants; transformant N69, 20 nM",4
same,Tolerance to chlorosulfuron,"tobacco transformants; transformant N69, 50 nM",4
same,Tolerance to chlorosulfuron,"tobacco transformants; transformant N69, 100 nM",2
same,Tolerance to chlorosulfuron,"tobacco transformants; transformant N69, 200 nM",2
same,growth of the non-transformed plants,[2]; 50 nM chlorosulfuron,completely inhibited
same,Tolerance to chlorosulfuron,"[2]; Non-transformed, 20 nM",2
same,Tolerance to chlorosulfuron,"[2]; Non-transformed, 50 nM",1.5
same,Tolerance to chlorosulfuron,"[2]; Non-transformed, 100 nM",1
same,Tolerance to chlorosulfuron,"[2]; Non-transformed, 200 nM",0.5
same,Tolerance to chlorosulfuron,"[2]; Only vector introduced, 20 nM",2
same,Tolerance to chlorosulfuron,"[2]; Only vector introduced, 50 nM",1.5
same,Tolerance to chlorosulfuron,"[2]; Only vector introduced, 100 nM",1
same,Tolerance to chlorosulfuron,"[2]; Only vector introduced, 200 nM",0.5
same,"water-soluble substances which remained at the starting point of the development, in the transformants",tobacco R0 plants,increased
same,The number of tolerant lines,"[3]; 2C9, 250 nM · 2 ml, 44 sample lines",15
same,elongation of shoots and roots of segregated individuals,[3]; chlorosulfuron 250 nM,normally elongated
same,metabolic reaction confirmed,Human CYP2C9,ring hydroxylation
CCc1cccc(C)c1N(C(=O)CCl)C(C)COC (stereo not shown) [metolachlor],Germination of seeds,"[1]; […] metolachlor, […] alachlor, 15 μM triflurarin",inhibited
same,Germination of seeds,[1]; metolachlor 4 μM,inhibited
same,Resistance to herbicide,non-transformed MayQueen; Metolachlor 10 μmol/pot,2
same,Resistance to herbicide,non-transformed MayQueen; Metolachlor 15 μmol/pot,2
same,Resistance to herbicide,non-transformed MayQueen; Metolachlor 20 μmol/pot,1.5
same,The number of tolerant lines,"[4]; 2C18, 4 μM · 2 ml, 72 sample lines",3
same,elongation of shoots and roots of segregated individuals,[4]; metolachlor 4 μM,normally elongated
same,The number of tolerant lines,"[5]; 2C19, 4 μM · 2 ml, 68 sample lines",13
same,elongation of shoots and roots of segregated individuals,[5]; metolachlor 4 μM,normally elongated
same,metabolic reaction confirmed,Human CYP2B6,"O-deethylation, O-demethylation"
same,resistance of the transformant to the herbicide,S1974 (human CYP2C19),strong resistance
same,resistance of the transformant to the herbicide,S1972 (human CYP2B6),strong resistance
same,Resistance to herbicide,potato transformants [6]; Metolachlor 10 μmol/pot,2.5
same,Resistance to herbicide,potato transformants [6]; Metolachlor 15 μmol/pot,3.5
same,Resistance to herbicide,potato transformants [6]; Metolachlor 20 μmol/pot,2.5
same,resistance of the transformant compared with the non-transformed MayQueen,potato transformants [6]; herbicide dispersed 1 week after transfer to pots,higher resistance
COc1cccc(N(C)C(=S)Oc2cccc(C(C)(C)C)c2)n1 [pyributicarb],amounts of pyributicarb in transgenic plant and in the medium compared with non-transformed MayQueen,potato transformants [7],obviously reduced
same,metabolic reaction confirmed,Human CYP2C19,thioester cleavage
